Test results as given in patent US7172889B2, “Biological compositions and methods for treatment of cervical cancer” (Ultra Biotech Limited, priority 2003, dated 2007).

Tests used:
[1] = tested on: cervical cancer cell line U14; experiment: Tumor growth in mice of the 615 strain transplanted with cervical cancer cell line U14 (Example 6); format: in vivo, mice from the 615 strain; conditions: U14 tumor-bearing 615 mice, 30 consecutive days of treatment, sacrificed on 31st day; AY/NY 0.3 ml oral once per day, MMC 0.8 mg/kg/day s.c.
Source text: The following example illustrates the benefit of a biological composition of the invention in a model of human cervical cancer in mice from the 615 strain. The growth of the tumor in the mice was studied.
(§1) The cervical cancer cell line U14 was used in the model which closely resembles the human cervical cancer pathology. Detailed description of the use of cervical cancer cell line U14 can be found in Tao G. et al., 2001, Chin Med J. 114(6):623–7, which is incorporated herein by reference in its entirety.
(§2) The biological composition comprising 10^8 cells per ml of activated and conditioned yeast cells of the strain Saccharomyces carlsbergensis Hansen strain AS2.444 was prepared by the methods described in Section 5.1 and subsections therein.
The animals used to generate the cervical cancer cells for the experiments were female mice from the 615 strain (obtainable from the Chinese Academy of Military Medical Sciences, Beijing, China) having an average body weight of 20 to 22 gram and 4 to 6 months old. […]
The mice received the biological composition, untreated yeast cells, MMC or saline on the same day as the tumor cells were transplanted. […] The weight of the mice and the weight of the tumor were determined by standard techniques.

[2] = tested on: cervical cancer cell line U14; experiment: Survival of mice of the 615 strain transplanted with cervical cancer cell line U14 (Example 7); format: in vivo; conditions: for Number of live animals remaining in the groups after 30 days of treatment: 30 mice per group, 2AY/2NY 0.5 ml oral per day, 2MMC 1.2 mg/kg/day s.c.
Description: The following example illustrates the benefit of a biological composition of the invention in a model of human cervical cancer in mice from the 615 strain. The survival time of mice after tumor injection and treatment was studied.
as §2
The animals were prepared in a similar manner as described in Section 6.1.
(§3) The mice injected with tumor cells were immediately divided into 4 experimental groups of ten mice per group and one control group. The four experimental groups were triplicated (i.e., using a total of 120 mice in the experimental groups). In group 2AY, the mice received 0.5 ml of the biological composition once per day. In group 2NY, the mice received 0.5 ml of the untreated yeast cells once per day. In group 2MMC, the mice were injected subcutaneously with 1.2 mg of mitomycin C (MMC) per kg body weight per day. In group 2CK1, the mice received 0.5 ml of physiological saline once per day.
(§4) The mice received the biological composition, untreated yeast cells, MMC or saline on the same day as the tumor cells were transplanted. The mice in group 2CK2 also started receiving saline on the same day as the other four groups. The biological composition, untreated yeast cells and saline were administered orally by a feeding tube and the MMC by subcutaneous injection for 30 consecutive days. The mice were observed over 6 months from the day of tumor inoculation and survival was recorded. The weight of the mice and the weight of the tumor were determined by standard techniques.

[3] = tested on: cervical cancer cell line U27; experiment: Tumor growth in kun ming mice transplanted with cervical cancer cell line U27 (Example 8); format: in vivo, kun ming mouse; conditions: U27 tumor-bearing kun ming mice, 30 consecutive days of treatment, sacrificed on 31st day; AY/NY 0.3 ml oral once per day, VCR 3 mg/kg/day i.v.
Source text: The following example illustrates the benefit of a biological composition of the invention in a kun ming mouse model of human cervical cancer. The growth of the tumor in the mice was studied.
as §1, with “U27” for “U14”, “Qian S. S.” for “Tao G.”, “1987, Zhongguo Yi Xue Ke Xue Yuan Xue Bao 9(1):33–7,” for “2001, Chin Med J. 114(6):623–7,”
as §2
The animals used to generate the cervical cancer cells for the experiments were female kun ming mouse (obtainable from the Chinese Academy of Military Medical Sciences, Beijing, China) having an average body weight of 20 to 22 gram and 5 to 6 months old. […]
The mice received the biological composition, untreated yeast cells, VCR or saline on the same day as the tumor cells were transplanted. […] The weight of the mice and the weight of the tumor were determined by standard techniques.

[4] = tested on: cervical cancer cell line U27; experiment: Survival of kun ming mice transplanted with cervical cancer cell line U27 (Example 9); format: in vivo; conditions: for Number of live animals remaining in the groups after 30 days of treatment: 30 mice per group, 2AY/2NY 0.5 ml oral per day, 2VCR 4.5 mg/kg/day i.v.
Description: The following example illustrates the benefit of a biological composition of the invention in a kun ming mouse model of human cervical cancer. The survival time of mice after tumor injection and treatment was studied.
as §2
The animals were prepared in a similar manner as described in Section 8.1.
as §3, with “2VCR,” for “2MMC,”, “intravenously” for “subcutaneously”, “4.5” for “1.2”, “[…] (VCR)” for “mitomycin C (MMC)”
as §4, with “VCR” for “MMC”, “intravenous” for “subcutaneous”

[5] = 0 month after cessation of treatment
[6] = 1 month after cessation of treatment
[7] = 2 months after cessation of treatment
[8] = 3 months after cessation of treatment
[9] = 4 months after cessation of treatment
[10] = 5 months after cessation of treatment
[11] = 6 months after cessation of treatment
[12] = surviving mice after 6 months observation, U14, 615 mice, 0.5 ml oral per day (2MMC 1.2 mg/kg/day s.c.) for 30 days
[13] = surviving mice after 6 months observation, U27, kun ming mice, 0.5 ml oral per day (2VCR 4.5 mg/kg/day i.v.) for 30 days

## CO[C@@]12[C@H](COC(N)=O)C3=C(C(=O)C(C)=C(N)C3=O)N1C[C@@H]1N[C@@H]12 [MMC, mitomycin C]
[1]
  mean weight of mice and standard deviation: 19.3 ± 3.3 g
  mean weight of tumor nodules and standard deviation: 4.4 ± 2.23 mg
[2]; [5]
  Number of live animals remaining in the groups after 30 days of treatment: 30
[2]; [6]
  Number of live animals remaining in the groups after 30 days of treatment: 30
[2]; [7]
  Number of live animals remaining in the groups after 30 days of treatment: 24
[2]; [8]
  Number of live animals remaining in the groups after 30 days of treatment: 13
[2]; [9]
  Number of live animals remaining in the groups after 30 days of treatment: 0
[2]; [10]
  Number of live animals remaining in the groups after 30 days of treatment: 0
[2]; [11]
  Number of live animals remaining in the groups after 30 days of treatment: 0
[2]; observed over 6 months, 2NY 0.5 ml per day, 2MMC 1.2 mg/kg/day
  death during the experiment: all died during the experiment
[2]; [12]
  mean weight of mice and standard deviation: all animals dead
  mean weight of tumor nodules and standard deviation: all animals dead

## CC[C@]1(O)C[C@@H]2CN(CCc3c([nH]c4ccccc34)[C@@](C(=O)OC)(c3cc4c(cc3OC)N(C)[C@H]3[C@@](O)(C(=O)OC)[C@H](OC(C)=O)[C@]5(CC)C=CCN6CC[C@]43[C@@H]65)C2)C1 [VCR, vinblastine]
[3]
  mean weight of mice and standard deviation: 18.5 ± 3.7 g
  mean weight of tumor nodules and standard deviation: 4.77 ± 2.79 g
[4]; [5]
  Number of live animals remaining in the groups after 30 days of treatment: 30
[4]; [6]
  Number of live animals remaining in the groups after 30 days of treatment: 30
[4]; [7]
  Number of live animals remaining in the groups after 30 days of treatment: 22
[4]; [8]
  Number of live animals remaining in the groups after 30 days of treatment: 17
[4]; [9]
  Number of live animals remaining in the groups after 30 days of treatment: 4
[4]; [10]
  Number of live animals remaining in the groups after 30 days of treatment: 0
[4]; [11]
  Number of live animals remaining in the groups after 30 days of treatment: 0
[4]; observed over 6 months, 2NY 0.5 ml per day, 2VCR 4.5 mg/kg/day
  death during the experiment: all died during the experiment
[4]; [13]
  mean weight of mice and standard deviation: all animals dead
  mean weight of tumor nodules and standard deviation: all animals dead
